PubChem BioAssay AID248 (DTP/NCI, 2004)
Toxic doses and inconclusive results are not listed.

Tested on: L1210 leukemia ip in BDF1 mice, survival T/C
Assay: NCI In Vivo Anticancer Drug Screen. Data for tumor model L1210 Leukemia (intraperitoneal) in B6D2F1 (BDF1) mice
Conditions: endpoint: mean survival time, higher = longer survival
Procedure, shortened: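 Value reflects the ratio of survival in compound-treated mice to survival in vehicle-treated controls, with both groups carrying the same transplanted tumor.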

[1] = dose: 100.0 mg/kg/injection, schedule: Q04DX003 (ip), vehicle: Klucel (hydroxypropylcellulose) (HPC)
[2] = dose: 200.0 mg/kg/injection, schedule: Q04DX003 (ip), vehicle: Klucel (hydroxypropylcellulose) (HPC)
[3] = dose: 400.0 mg/kg/injection, schedule: Q04DX003 (ip), vehicle: Klucel (hydroxypropylcellulose) (HPC)
[4] = dose: 100.0 mg/kg/injection, schedule: Q01DX009 (ip), vehicle: saline

Cc1cc(=O)oc2c(OC(=O)N(CCCl)CCCl)c(OC(=O)N(CCCl)CCCl)ccc12
T/C (dose: 25.0 mg/kg/injection, schedule: Q04DX002 (ip), vehicle: Klucel (hydroxypropylcellulose) (HPC)): 90 % of control
T/C (dose: 50.0 mg/kg/injection, schedule: Q04DX002 (ip), vehicle: Klucel (hydroxypropylcellulose) (HPC)): 94 % of control
T/C (dose: 100.0 mg/kg/injection, schedule: Q04DX002 (ip), vehicle: Klucel (hydroxypropylcellulose) (HPC)): 97 % of control
T/C (dose: 200.0 mg/kg/injection, schedule: Q04DX002 (ip), vehicle: Klucel (hydroxypropylcellulose) (HPC)): 90 % of control
T/C (dose: 400.0 mg/kg/injection, schedule: Q04DX002 (ip), vehicle: Klucel (hydroxypropylcellulose) (HPC)): 103 % of control

COc1cc(C=O)c(Oc2cc(C=O)ccc2OC)cc1OC
T/C [1]: 97 % of control
T/C [2]: 100 % of control
T/C [3]: 103 % of control

C[n+]1ccc(/C=C/Nc2cccc(N)n2)cc1
T/C (dose: 75.0 mg/kg/injection, schedule: Q01DX001 (ip), vehicle: saline): 96 % of control
T/C (dose: 150.0 mg/kg/injection, schedule: Q01DX001 (ip), vehicle: saline): 102 % of control

CCOP(=O)(OCC)Oc1ccc(SC)cc1
T/C (dose: 5.0 mg/kg/injection, schedule: Q01DX001 (ip), vehicle: saline): 96 % of control
T/C (dose: 10.0 mg/kg/injection, schedule: Q01DX001 (ip), vehicle: saline): 98 % of control

CCC1CN2C(=N1)c1cc(Cl)ccc1-c1ccc(Cl)cc12 (configuration not stated)
T/C (dose: 100.0 mg/kg/injection, schedule: Q01DX009 (ip), vehicle: Klucel (hydroxypropylcellulose) (HPC)): 95 % of control
T/C [1]: 101 % of control
T/C (dose: 200.0 mg/kg/injection, schedule: Q01DX009 (ip), vehicle: Klucel (hydroxypropylcellulose) (HPC)): 98 % of control
T/C [2]: 103 % of control
T/C [3]: 116 % of control

O=c1[nH]nc(-c2ccccc2)c2ccccc12
T/C (dose: 50.0 mg/kg/injection, schedule: Q01DX001 (ip), vehicle: saline): 100 % of control
T/C (dose: 100.0 mg/kg/injection, schedule: Q01DX001 (ip), vehicle: saline): 97 % of control
T/C (dose: 200.0 mg/kg/injection, schedule: Q01DX001 (ip), vehicle: saline): 93 % of control
T/C (dose: 400.0 mg/kg/injection, schedule: Q01DX001 (ip), vehicle: saline): 100 % of control

CNC(C#N)c1ccco1 (configuration not stated)
T/C (dose: 6.25 mg/kg/injection, schedule: Q04DX003 (ip), vehicle: saline): 102 % of control
T/C (dose: 12.5 mg/kg/injection, schedule: Q04DX003 (ip), vehicle: saline): 95 % of control
T/C (dose: 50.0 mg/kg/injection, schedule: Q04DX003 (ip), vehicle: saline): 94 % of control

CCN(CC)C(=O)N1CCCCC1
T/C [4]: 101 % of control
T/C (dose: 100.0 mg/kg/injection, schedule: Q04DX002 (ip), vehicle: saline): 97 % of control
T/C (dose: 200.0 mg/kg/injection, schedule: Q01DX009 (ip), vehicle: saline): 92 % of control
T/C (dose: 200.0 mg/kg/injection, schedule: Q04DX002 (ip), vehicle: saline): 100 % of control
T/C (dose: 400.0 mg/kg/injection, schedule: Q04DX002 (ip), vehicle: saline): 95 % of control

CCCC#CC(=O)OCCCC
T/C (dose: 100.0 mg/kg/injection, schedule: Q04DX002 (ip), vehicle: saline with Tween-80): 93 % of control
T/C (dose: 200.0 mg/kg/injection, schedule: Q04DX002 (ip), vehicle: saline with Tween-80): 90 % of control
T/C (dose: 400.0 mg/kg/injection, schedule: Q04DX002 (ip), vehicle: saline with Tween-80): 90 % of control

CN(N=O)C(=O)NCC1OC(OC2(CO)OC(CNC(=O)N(C)N=O)C(O)C2O)C(O)C(O)C1O (configuration not stated)
T/C (dose: 50.0 mg/kg/injection, schedule: Q01DX009 (ip), vehicle: saline with Tween-80): 107 % of control
T/C (dose: 50.0 mg/kg/injection, schedule: Q01DX009 (ip), vehicle: saline): 91 % of control
T/C (dose: 100.0 mg/kg/injection, schedule: Q01DX009 (ip), vehicle: saline with Tween-80): 121 % of control
T/C [4]: 109 % of control
T/C (dose: 400.0 mg/kg/injection, schedule: Q01DX009 (ip), vehicle: saline with Tween-80): 154 % of control
